Data on three compounds can be found in patent US4575554A, “Substituted 2-pyridylmethylthio- and sulfinyl-benzimidazoles as gastric antisecretory agents” (The Upjohn Company, priority 1984, dated 1986).

pIC50: −log10 of the molar value.

The target of one experiment is T1, (H^+ -K^+)ATPase (Rattus norvegicus, UniProt P09626).
T1 construct: from tissue; host or cells: rat, in vivo (endogenous enzyme)
Briefly: in vivo inactivation of (H^+ -K^+)ATPase in the rat. As to conditions: shown to be the most effective.

The test system of another experiment is gastric acid secretion. The experiment can be described thus: inhibition of gastric acid secretion in the rat, duration of activity after subcutaneous administration. The format is in vivo. As to conditions: after 6 days, 50 mg/kg. The source says:
A significant advantage of certain of the compounds of the instant invention, particularly those of the Formula I wherein R1 is hydrogen, X is =S(O), R3 is methyl or ethyl, R4 is hydrogen, and R2 is methylthio, ethylthio, or propylthio, is their long duration of activity when administered subcutaneously. Thus, even after 6 days 2[(4-ethylthio-3-ethylpyridin-2-ylmethyl)sulfinyl]-benzimidazole and 2-[(4-ethylthio-3-methylpyridin-2-ylmethyl)sulfinyl]-benzimidazole inhibited gastric acid secretion in the rat 68 and 82%, respectively, when administered subcutaneously at a dose of 50 mg/kg.

Another experiment relates to isolated gastric glands. Briefly: inhibition of acid secretion in isolated gastric glands of the rabbit. The class given is cell-based. As to conditions: Oryctolagus cuniculus, shown to be the most effective, read-out: ID50 (the source's name).
A further experiment addresses T2, gastric(H^+ -K^+)ATPase (Sus scrofa, UniProt P19156).
T2 construct: isolated hog gastric membranes enriched with gastric(H^+ -K^+)ATPase; from tissue; host or cells: hog gastric membranes
Briefly: inhibition of K^+ -dependent ATP hydrolysis by isolated hog gastric membranes enriched with gastric (H^+ -K^+)ATPase. The format is biochemical. As to conditions: shown to be the most effective, read-out: ID50 (the source's name).

T1 sequence (P09626 2-1033 limits assumed): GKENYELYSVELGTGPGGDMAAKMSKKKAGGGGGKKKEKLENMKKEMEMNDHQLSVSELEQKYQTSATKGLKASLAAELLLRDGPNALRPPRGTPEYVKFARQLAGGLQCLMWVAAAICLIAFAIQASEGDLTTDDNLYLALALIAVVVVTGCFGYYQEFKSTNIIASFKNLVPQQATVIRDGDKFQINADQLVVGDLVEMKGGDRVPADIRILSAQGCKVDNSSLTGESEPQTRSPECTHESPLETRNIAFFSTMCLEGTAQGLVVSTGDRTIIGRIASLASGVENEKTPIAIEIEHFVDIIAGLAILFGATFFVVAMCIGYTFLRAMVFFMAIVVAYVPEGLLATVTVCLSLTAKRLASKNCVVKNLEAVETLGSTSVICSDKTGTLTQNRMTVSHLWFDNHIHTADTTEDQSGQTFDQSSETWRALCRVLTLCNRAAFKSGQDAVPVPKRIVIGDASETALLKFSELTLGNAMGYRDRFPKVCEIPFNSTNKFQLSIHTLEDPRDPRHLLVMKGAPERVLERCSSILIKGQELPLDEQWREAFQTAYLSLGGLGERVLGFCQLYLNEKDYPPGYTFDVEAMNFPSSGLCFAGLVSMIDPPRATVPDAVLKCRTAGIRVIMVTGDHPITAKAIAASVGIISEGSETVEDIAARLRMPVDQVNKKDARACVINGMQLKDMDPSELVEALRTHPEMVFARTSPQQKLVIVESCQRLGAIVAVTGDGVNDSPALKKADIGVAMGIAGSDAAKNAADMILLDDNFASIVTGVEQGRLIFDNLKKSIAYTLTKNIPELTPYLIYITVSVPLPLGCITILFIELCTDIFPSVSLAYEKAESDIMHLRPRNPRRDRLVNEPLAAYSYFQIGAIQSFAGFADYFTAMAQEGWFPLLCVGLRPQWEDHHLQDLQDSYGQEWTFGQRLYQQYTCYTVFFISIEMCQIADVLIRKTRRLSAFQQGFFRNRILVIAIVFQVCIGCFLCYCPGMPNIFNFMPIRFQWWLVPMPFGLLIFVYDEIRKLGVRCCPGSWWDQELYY
T1 sequence (P18598 whole entry partner): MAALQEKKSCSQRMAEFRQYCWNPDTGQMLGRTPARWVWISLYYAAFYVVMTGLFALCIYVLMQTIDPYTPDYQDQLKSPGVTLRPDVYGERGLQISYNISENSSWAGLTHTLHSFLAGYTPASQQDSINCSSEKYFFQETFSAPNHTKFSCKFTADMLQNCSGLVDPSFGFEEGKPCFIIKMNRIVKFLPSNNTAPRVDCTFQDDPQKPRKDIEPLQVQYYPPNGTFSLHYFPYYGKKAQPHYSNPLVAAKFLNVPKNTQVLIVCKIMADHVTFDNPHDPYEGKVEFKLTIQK
T2 sequence (P19156 2-1034 limits assumed): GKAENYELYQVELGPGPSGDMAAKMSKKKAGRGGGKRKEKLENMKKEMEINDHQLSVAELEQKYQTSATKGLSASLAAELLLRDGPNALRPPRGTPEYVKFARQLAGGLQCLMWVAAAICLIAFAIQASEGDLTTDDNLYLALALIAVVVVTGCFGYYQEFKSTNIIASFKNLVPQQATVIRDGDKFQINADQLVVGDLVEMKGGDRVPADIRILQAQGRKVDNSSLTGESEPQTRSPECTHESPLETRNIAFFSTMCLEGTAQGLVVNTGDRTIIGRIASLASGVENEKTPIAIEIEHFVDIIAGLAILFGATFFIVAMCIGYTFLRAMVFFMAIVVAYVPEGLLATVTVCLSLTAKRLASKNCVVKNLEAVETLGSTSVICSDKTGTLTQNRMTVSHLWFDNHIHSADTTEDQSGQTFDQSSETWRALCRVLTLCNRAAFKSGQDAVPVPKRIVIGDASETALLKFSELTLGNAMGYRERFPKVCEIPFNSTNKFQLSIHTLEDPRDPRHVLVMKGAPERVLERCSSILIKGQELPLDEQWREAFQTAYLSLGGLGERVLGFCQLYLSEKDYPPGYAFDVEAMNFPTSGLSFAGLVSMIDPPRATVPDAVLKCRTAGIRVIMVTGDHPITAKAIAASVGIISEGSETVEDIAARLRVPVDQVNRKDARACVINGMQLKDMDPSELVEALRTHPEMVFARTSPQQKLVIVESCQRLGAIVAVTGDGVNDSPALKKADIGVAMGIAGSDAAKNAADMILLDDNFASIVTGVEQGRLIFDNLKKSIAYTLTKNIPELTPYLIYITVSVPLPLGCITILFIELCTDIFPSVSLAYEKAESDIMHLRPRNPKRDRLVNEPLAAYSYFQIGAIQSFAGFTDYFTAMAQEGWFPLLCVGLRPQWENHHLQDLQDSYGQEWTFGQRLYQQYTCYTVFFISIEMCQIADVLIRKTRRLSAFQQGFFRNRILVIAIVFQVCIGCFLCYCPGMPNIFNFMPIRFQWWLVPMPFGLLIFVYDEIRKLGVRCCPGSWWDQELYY
T2 sequence (P18434 whole entry partner): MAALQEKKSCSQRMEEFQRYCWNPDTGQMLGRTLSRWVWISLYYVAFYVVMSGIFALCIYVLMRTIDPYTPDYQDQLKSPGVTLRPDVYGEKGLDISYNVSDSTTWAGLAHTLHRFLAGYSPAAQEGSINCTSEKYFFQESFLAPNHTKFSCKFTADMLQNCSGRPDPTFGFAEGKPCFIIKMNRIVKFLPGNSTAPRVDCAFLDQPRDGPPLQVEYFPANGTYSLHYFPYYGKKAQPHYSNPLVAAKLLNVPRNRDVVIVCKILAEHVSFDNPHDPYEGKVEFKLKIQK

In general, ED50 refers to the dose at which the effect has come halfway, by size or by number of responders. A high value points to a need for a large dose. On to `CCSc1ccnc(C[S+]([O-])c2nc3ccccc3[nH]2)c1C` (centres unmarked) [Compound 7, 2-[(4-ethylthio-3-methylpyridin-2-ylmethyl)sulfinyl]-benzimidazole], for which the ED50 on (H^+ -K^+)ATPase stood at 1 mg/kg. Also, in the experiment on gastric acid secretion, the “inhibition of gastric acid secretion” value is given as 82%.

Consider `CCSc1ccnc(C[S+]([O-])c2nc3ccccc3[nH]2)c1CC` (centres unmarked) [Compound 12, 2-[(4-ethylthio-3-ethylpyridin-2-ylmethyl)sulfinyl]-benzimidazole], for which the pIC50 in the experiment with isolated gastric glands was 7.00. In the experiment with gastric acid secretion, the “inhibition of gastric acid secretion” value turned out to be 68%.

For `CCc1c(OC)ccnc1C[S+]([O-])c1nc2ccccc2[nH]1` (centres unmarked) [Compound 15, 2-[(4-methoxy-3-ethylpyridin-2-ylmethyl)sulfinyl]-benzimidazole], the pIC50 on gastric(H^+ -K^+)ATPase is 5.52.
